Converted amounts (≈) assume the structure as drawn.
What was measured:
[1] = cited from earlier work
[2] = deionized-water; cited from earlier work
DU-145 = conditions: exposure time period of 72; previous study; read-out: reported IC50 of DXT; cited from earlier work
MCF-10A = assay: MTS cell viability / cytotoxicity on normal MCF-10A cells; type: cell-based, human; conditions: 1% v/v

CC(=O)O[C@@]12CO[C@@H]1C[C@H](O)[C@@]1(C)C(=O)[C@H](O)C3=C(C)[C@@H](OC(=O)[C@H](O)[C@@H](NC(=O)OC(C)(C)C)c4ccccc4)C[C@@](O)([C@@H](OC(=O)c4ccccc4)[C@H]21)C3(C)C [native DXT, Docetaxel]
log P [1]: 4.1 | solubility [2]: 11.75 µg/mL (≈ 14.5 µM) | IC50 (DU-145): 8.2 nM

Triton X
cytotoxicity of positive control (MCF-10A): strongly cytotoxic

— patent US11529328B2, “Formulations for pharmaceutical agents” (The Curators of the University of Missouri, priority 2019, dated 2022)
